Data from patent US7504416B2, “4-substituted quinolines as antitumor agents” (AstraZeneca AB, priority 2000, dated 2009).

Test system: HT29 human colon tumour cells
Experiment: Cell proliferation assay
Type: cell-based
Conditions: HT-29, 72 hours incubation
Protocol: Cell Proliferation Assays
Cells were seeded into multi-well plates at 20 000-40 000 cells/ml in growth medium containing 5% FCS and incubated overnight at 37° C. The compounds were prepared in fresh medium at an appropriate concentration and added to the wells containing the cells. These were then incubated for a further 72 hours. Cells were then either removed from the wells by incubating with trypsin/EDTA and counted using a Coulter counter, or treated with XTT/PMS in PBSA and optical densities read at 450 nm. […] For example, Compound No 3 gave an IC50 of 1.0 μM in HT29 human colon tumour cells.

Work on `COc1cc2ncc(C#N)c(Nc3ccc(Oc4ccccc4OCC(=O)NCC(=O)N4CCN(C)CC4)cc3)c2cc1OC` [Compound 3] yielded an IC50 of 1000 nM.
